Results as given in paper PMC9503024, “Structure and Biological Properties of Ribosome-Inactivating Proteins and Lectins from Elder (Sambucus nigra L.) Leaves” (Toxins, 2022).

Experiments:
Details in all cases: human erythrocytes; room temperature, 1 h; serial dilutions
[1] = biological target: nigrin l (Sambucus nigra, UniProt Q8GT32)
[2] = biological target: SNAld (Sambucus nigra, UniProt Q8GTA6)
[3] = biological target: SNAlm (Sambucus nigra, UniProt Q8GTA5)
Chain of SNAlm (Q8GTA5 57-316 limits assumed): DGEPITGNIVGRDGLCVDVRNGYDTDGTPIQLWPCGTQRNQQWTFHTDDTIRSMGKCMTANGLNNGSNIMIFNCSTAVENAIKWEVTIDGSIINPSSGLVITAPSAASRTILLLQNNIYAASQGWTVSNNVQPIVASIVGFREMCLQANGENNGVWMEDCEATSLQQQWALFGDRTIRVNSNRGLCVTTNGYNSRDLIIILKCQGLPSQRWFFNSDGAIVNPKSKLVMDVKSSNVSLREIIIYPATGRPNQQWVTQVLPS

Chain of nigrin l (Q8GT32 26-282 limits assumed): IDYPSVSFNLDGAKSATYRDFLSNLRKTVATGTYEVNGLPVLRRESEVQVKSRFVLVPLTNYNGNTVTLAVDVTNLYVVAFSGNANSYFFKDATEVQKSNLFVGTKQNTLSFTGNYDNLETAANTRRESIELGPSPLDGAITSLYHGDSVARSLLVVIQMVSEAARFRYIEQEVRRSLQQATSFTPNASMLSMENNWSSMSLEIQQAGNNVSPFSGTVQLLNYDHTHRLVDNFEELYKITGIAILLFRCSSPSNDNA
Chain of nigrin l (Q8GT32 298-563 limits assumed): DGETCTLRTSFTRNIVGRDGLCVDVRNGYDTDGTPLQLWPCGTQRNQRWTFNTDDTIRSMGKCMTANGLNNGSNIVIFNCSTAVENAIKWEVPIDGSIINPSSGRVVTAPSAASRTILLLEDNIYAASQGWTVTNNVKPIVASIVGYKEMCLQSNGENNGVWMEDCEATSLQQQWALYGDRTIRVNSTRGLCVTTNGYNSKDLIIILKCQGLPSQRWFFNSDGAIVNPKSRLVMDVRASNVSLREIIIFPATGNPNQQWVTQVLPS
Chain of SNAld (Q8GTA6 entry or part of it): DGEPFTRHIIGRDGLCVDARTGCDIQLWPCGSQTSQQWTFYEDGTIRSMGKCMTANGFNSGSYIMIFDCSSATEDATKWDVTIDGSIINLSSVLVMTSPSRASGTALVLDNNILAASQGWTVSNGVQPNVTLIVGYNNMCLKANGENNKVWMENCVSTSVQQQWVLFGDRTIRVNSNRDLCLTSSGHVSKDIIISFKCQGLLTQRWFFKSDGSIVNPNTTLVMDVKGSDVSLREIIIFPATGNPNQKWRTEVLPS

`OC[C@H]1OC(O)[C@H](O)[C@@H](O)[C@H]1O` (stereo partly drawn) [D-galactose] was tested, and the Nigrin l [1] was 50 mM, the SNAld [2] was 100 mM and the SNAlm [3] was 6.25 mM.

Work on `OC[C@H]1O[C@@H](O[C@H]2[C@H](O)[C@@H](O)C(O)O[C@@H]2CO)[C@H](O)[C@@H](O)[C@H]1O` (stereo partly drawn) [Lactose, β-D-galactopyranosyl-(1→4)-D-glucose] yielded a Nigrin l [1] of 12.5 mM, an SNAld [2] of 25 mM and an SNAlm [3] of 1.56 mM.
